Data reported in article PMC10786919, “Design-rules for stapled peptides with in vivo activity and their application to Mdm2/X antagonists” (Nature Communications, 2024).
Read-outs that look alike come from different tables or passages of the source. Positions of bridges follow the written chain, without caps; N, C: chain ends. Non-standard residues stand in square brackets, D forms with d. Residues, ends and D or L forms follow the SMILES beside them. 2Nal = N[C@@H](Cc1ccc2ccccc2c1)C(=O)O; R8 = C=CCCCCCC[C@@](C)(N)C(=O)O; Cit = NC(=O)NCCC[C@H](N)C(=O)O; Cba = N[C@@H](CC1CCC1)C(=O)O; S5 = C=CCCC[C@](C)(N)C(=O)O; Dab = NCC[C@H](N)C(=O)O; Dap = NC[C@H](N)C(=O)O; Aib = CC(C)(N)C(=O)O; Ahx = NCCCCCC(=O)O

Columns and labels:
[1] = Lactate dehydrogenase (LDH) release assay; type: cell-based
Procedure: (§1) HCT116 cells were stably transfected with a p53 responsive β-lactamase reporter and expanded in McCoy’s 5 A Medium with 10% fetal bovine serum (FBS), Blasticidin, and Penicillin/Streptomycin and then transferred to 1.5 ml freezing vials and stored under liquid nitrogen in growth media containing 5% DMSO. […] The cells were then seeded into a 384-well plate at a density of 8000 cells per well. […] The final working concentration of DMSO was 0.5%. Lactate dehydrogenase release was detected using the CytoTox-ONE Homogenous Membrane Integrity Assay Kit (Promega), as per the manufacturer’s instructions. Measurements were carried out using the Tecan plate reader. […] Measurements were taken a minimum of three times (biological replicates) and values are reported as geometric means of the replicates.

[2] = system: HCT116 cells; test: Lactate dehydrogenase (LDH) release assay; type: cell-based
Procedure: as §1

SMILES	EC50 ([1]; LDH: Cytotoxicity assay EC50) [µM]	LDH: Cytotoxicity assay % Effect [2] [%]	also measured
CC(=O)N[C@H](C(=O)N[C@@H](CO)C(=O)N[C@@H](Cc1ccccc1)C(=O)N[C@]1(C)CCCCCCC=CCCC[C@@](C)(C(=O)N[C@@H](CCC(=O)O)C(N)=O)NC(=O)[C@H](CC2CCC2)NC(=O)[C@H](CC(C)C)NC(=O)[C@H](C)NC(=O)[C@H](Cc2c[nH]c3ccccc23)NC(=O)[C@H](Cc2ccc(O)cc2)NC(=O)[C@H](CCC(=O)O)NC1=O)[C@@H](C)O [MP-140] (Ac-TSF[R8]EYWAL[Cba][S5]E-NH2; staple 4-11)	> 50	11.41	–
CC(=O)N[C@H](C(=O)N[C@@H](CO)C(=O)N[C@@H](Cc1ccccc1)C(=O)NC(C)(C)C(=O)N[C@@H](CCC(=O)O)C(=O)N[C@@H](Cc1ccc(O)cc1)C(=O)N[C@@H](Cc1c[nH]c2ccccc12)C(=O)N[C@@H](C)C(=O)N[C@@H](CC(C)C)C(=O)N[C@@H](CC1CCC1)C(=O)NC(C)(C)C(N)=O)[C@@H](C)O [MP-1154] (Ac-TSF[Aib]EYWAL[Cba][Aib]-NH2)	> 50	17.78	–
CC(=O)N[C@@H](CCCCN=[N+]=[N-])C(=O)NCCC(=O)N[C@@H](CC(C)C)C(=O)N[C@@H](CCC(=O)O)C(=O)N[C@@H](Cc1ccccc1)C(=O)N[C@@]1(C)CCCCCCC=CCCC[C@@](C)(C(=O)N[C@@H](CO)C(=O)N[C@@H](C)C(=O)N[C@@H](C)C(N)=O)NC(=O)[C@H](CC2CCC2)NC(=O)[C@H](CCC(N)=O)NC(=O)[C@H](C)NC(=O)[C@H](Cc2c[nH]c3ccccc23)NC(=O)[C@H](Cc2ccc(O)cc2)NC(=O)[C@H](CCC(=O)O)NC1=O [MP-630]	–	–	EC50 ([1]; LDH: Cytotoxicity assay: EC50): > 50.7 µM
CC(=O)N[C@@H](CCCCN)C(=O)N[C@@H](CCCCN)C(=O)N[C@H](C(=O)N[C@@H](CO)C(=O)N[C@@H](Cc1ccccc1)C(=O)N[C@]1(C)CCCCCCC=CCCC[C@@](C)(C(N)=O)NC(=O)[C@H](CC2CCC2)NC(=O)[C@H](CC(C)C)NC(=O)[C@H](C)NC(=O)[C@H](Cc2c[nH]c3ccccc23)NC(=O)[C@H](Cc2ccc(O)cc2)NC(=O)[C@H](CCC(=O)O)NC1=O)[C@@H](C)O [MP-087] (Ac-KKTSF[R8]EYWAL[Cba][S5]-NH2; staple 6-13)	35.2	23.77	–
CC(=O)N[C@@H](CN)C(=O)NCCCCCC(=O)N[C@H](C(=O)N[C@@H](CO)C(=O)N[C@@H](Cc1ccccc1)C(=O)N[C@]1(C)CCCCCCC=CCCC[C@@](C)(C(=O)N[C@@H](CCC(=O)O)C(=O)N[C@@H](CC(N)=O)C(=O)N[C@@H](Cc2ccccc2)C(N)=O)NC(=O)[C@H](CC(C)C)NC(=O)[C@H](CC(C)C)NC(=O)[C@H](C)NC(=O)[C@H](Cc2c[nH]c3ccccc23)NC(=O)[C@H](Cc2ccc(O)cc2)NC(=O)[C@H](CCC(=O)O)NC1=O)[C@@H](C)O [MP-665]	> 50	4.993	–
CC(=O)N[C@H](C(=O)N[C@@H](CCCNC(N)=O)C(=O)N[C@@H](CCCCN)C(=O)NCCCCCC(=O)N[C@H](C(=O)N[C@@H](CO)C(=O)N[C@@H](Cc1ccccc1)C(=O)N[C@]1(C)CCCCCCC=CCCC[C@@](C)(C(=O)N[C@@H](CCC(=O)O)C(=O)N[C@@H](CC(N)=O)C(=O)N[C@@H](Cc2ccccc2)C(N)=O)NC(=O)[C@H](CC(C)C)NC(=O)[C@H](CC(C)C)NC(=O)[C@H](C)NC(=O)[C@H](Cc2c[nH]c3ccccc23)NC(=O)[C@H](Cc2ccc(O)cc2)NC(=O)[C@H](CCC(=O)O)NC1=O)[C@@H](C)O)C(C)C [MP-668] (Ac-V[Cit]K[Ahx]TSF[R8]EYWALL[S5]ENF-NH2; staple 8-15)	> 50	4.429	–
CC(=O)N[C@@H](CCN)C(=O)NCCCCCC(=O)N[C@H](C(=O)N[C@@H](CO)C(=O)N[C@@H](Cc1ccccc1)C(=O)N[C@]1(C)CCCCCCC=CCCC[C@@](C)(C(=O)N[C@@H](CCC(=O)O)C(=O)N[C@@H](CC(N)=O)C(=O)N[C@@H](Cc2ccccc2)C(N)=O)NC(=O)[C@H](CC(C)C)NC(=O)[C@H](CC(C)C)NC(=O)[C@H](C)NC(=O)[C@H](Cc2c[nH]c3ccccc23)NC(=O)[C@H](Cc2ccc(O)cc2)NC(=O)[C@H](CCC(=O)O)NC1=O)[C@@H](C)O [MP-666]	> 50	15.43	–
CC(=O)N[C@@H](CN)C(=O)N[C@@H](CN)C(=O)NCCCCCC(=O)N[C@H](C(=O)N[C@@H](CO)C(=O)N[C@@H](Cc1ccccc1)C(=O)N[C@]1(C)CCCCCCC=CCCC[C@@](C)(C(=O)N[C@@H](CCC(=O)O)C(=O)N[C@@H](CC(N)=O)C(=O)N[C@@H](Cc2ccccc2)C(N)=O)NC(=O)[C@H](CC(C)C)NC(=O)[C@H](CC(C)C)NC(=O)[C@H](C)NC(=O)[C@H](Cc2c[nH]c3ccccc23)NC(=O)[C@H](Cc2ccc(O)cc2)NC(=O)[C@H](CCC(=O)O)NC1=O)[C@@H](C)O [MP-663] (Ac-[Dap][Dap][Ahx]TSF[R8]EYWALL[S5]ENF-NH2; staple 7-14)	> 50	–	–
CC(=O)N[C@@H](CCCCN=[N+]=[N-])C(=O)NCCC(=O)N[C@@H](CC(C)C)C(=O)N[C@H](C(=O)N[C@@H](Cc1ccccc1)C(=O)N[C@]1(C)CCCCCCC=CCCC[C@@](C)(C(=O)N[C@@H](CO)C(=O)N[C@@H](C)C(=O)N[C@@H](C)C(N)=O)NC(=O)[C@H](CC2CCC2)NC(=O)[C@H](CCC(N)=O)NC(=O)[C@H](C)NC(=O)[C@H](Cc2c[nH]c3cc(Cl)ccc23)NC(=O)[C@H](Cc2ccc(CP(=O)(O)O)cc2)NC(=O)[C@H](CCC(=O)O)NC1=O)[C@@H](C)O [MP-891]	–	–	EC50 ([1]; 0% FBS 4Hr, read-out: LDH: Cytotoxicity assay: EC50): > 50.6 µM; LDH: Cytotoxicity assay: % Effect ([2]; 0% FBS 4Hr): 3.299%
CC(C)C[C@H](NC(=O)CCNC(=O)[C@@H](N)CCCCN=[N+]=[N-])C(=O)N[C@H](C(=O)N[C@@H](Cc1ccccc1)C(=O)N[C@]1(C)CCCCCCC=CCCC[C@@](C)(C(=O)N[C@@H](CO)C(=O)N[C@@H](C)C(=O)N[C@@H](C)C(N)=O)NC(=O)[C@H](CC2CCC2)NC(=O)[C@H](CCC(N)=O)NC(=O)[C@H](C)NC(=O)[C@H](Cc2c[nH]c3ccccc23)NC(=O)[C@H](Cc2ccc(O)cc2)NC(=O)[C@H](CCC(=O)O)NC1=O)[C@@H](C)O [MP-618]	–	–	EC50 ([1]; LDH: Cytotoxicity assay: EC50): > 50.7 µM
CC(=O)N[C@@H](CCCCN=[N+]=[N-])C(=O)NCCC(=O)N[C@@H](CC(C)C)C(=O)N[C@H](C(=O)N[C@@H](Cc1ccccc1)C(=O)N[C@]1(C)CCCCCCC=CCCC[C@@](C)(C(=O)N[C@@H](CO)C(=O)N[C@@H](C)C(=O)N[C@@H](C)C(N)=O)NC(=O)[C@H](CC2CCC2)NC(=O)[C@H](CCC(N)=O)NC(=O)[C@H](C)N(C)C(=O)[C@H](Cc2c[nH]c3ccccc23)NC(=O)[C@H](Cc2ccc(O)cc2)NC(=O)[C@H](CCC(=O)O)NC1=O)[C@@H](C)O [MP-498]	–	–	EC50 ([1]; LDH: Cytotoxicity assay: EC50): > 50 µM; LDH: Cytotoxicity assay: % Effect [2]: 7.026%
CC(=O)N[C@@H](CCN)C(=O)N[C@@H](CCN)C(=O)NCCCCCC(=O)N[C@H](C(=O)N[C@@H](CO)C(=O)N[C@@H](Cc1ccccc1)C(=O)N[C@]1(C)CCCCCCC=CCCC[C@@](C)(C(=O)N[C@@H](CCC(=O)O)C(=O)N[C@@H](CC(N)=O)C(=O)N[C@@H](Cc2ccccc2)C(N)=O)NC(=O)[C@H](CC(C)C)NC(=O)[C@H](CC(C)C)NC(=O)[C@H](C)NC(=O)[C@H](Cc2c[nH]c3ccccc23)NC(=O)[C@H](Cc2ccc(O)cc2)NC(=O)[C@H](CCC(=O)O)NC1=O)[C@@H](C)O [MP-664] (Ac-[Dab][Dab][Ahx]TSF[R8]EYWALL[S5]ENF-NH2; staple 7-14)	> 50	4.71	–
CC(=O)N[C@H](C(=O)N[C@@H](CCCNC(N)=O)C(=O)N[C@@H](CC(C)C)C(=O)N[C@H](C(=O)N[C@@H](Cc1ccccc1)C(=O)N[C@]1(C)CCCCCCC=CCCC[C@@](C)(C(=O)N[C@@H](CO)C(=O)N[C@@H](C)C(=O)N[C@@H](C)C(N)=O)NC(=O)[C@H](CC2CCC2)NC(=O)[C@H](CCC(N)=O)NC(=O)[C@H](C)NC(=O)[C@H](Cc2c[nH]c3ccccc23)NC(=O)[C@H](Cc2ccc(O)cc2)NC(=O)[C@H](CCC(=O)O)NC1=O)[C@@H](C)O)C(C)C [MP-669]	> 50	9.923	–
CC(=O)N[C@@H](CCCCN)C(=O)N[C@@H](CCCCN)C(=O)N[C@H](C(=O)N[C@@H](CO)C(=O)N[C@@H](Cc1ccc2ccccc2c1)C(=O)N[C@]1(C)CCCCCCC=CCCC[C@@](C)(C(=O)N[C@@H](CCC(=O)O)C(N)=O)NC(=O)[C@H](CC2CCC2)NC(=O)[C@H](CC(C)C)NC(=O)[C@H](C)NC(=O)[C@H](Cc2c[nH]c3ccccc23)NC(=O)[C@H](Cc2ccc(O)cc2)NC(=O)[C@H](CCC(=O)O)NC1=O)[C@@H](C)O [MP-158] (Ac-KKTS[2Nal][R8]EYWAL[Cba][S5]E-NH2; staple 6-13)	> 50	9.197	–
CC(=O)N[C@@H](CCCCN=[N+]=[N-])C(=O)NCCC(=O)N[C@@H](CC(C)C)C(=O)N[C@H](C(=O)N[C@@H](Cc1ccccc1)C(=O)N[C@]1(C)CCCCC#CC#CCCC[C@@](C)(C(=O)N[C@@H](C)C(=O)N[C@@H](C)C(=O)NC(C)(CCC(=O)O)C(=O)N[C@@H](C)C(=O)N[C@@H](C)C(=O)N[C@H](C)C(N)=O)NC(=O)[C@H](CC2CCC2)NC(=O)[C@H](CCC(N)=O)NC(=O)[C@H](C)NC(=O)[C@H](Cc2c[nH]c3ccccc23)NC(=O)[C@H](Cc2ccc(O)cc2)NC(=O)[C@H](CCC(=O)O)NC1=O)[C@@H](C)O (stereo partly shown) [MP-467, Ac-K(N3)-(betaAla)-LTF(X)EYWAQ(Cba)(X)AA(a-methly-Glu)AA(DAla)-NH2]	–	–	EC50 ([1]; 0% FBS 4Hr, read-out: LDH: Cytotoxicity assay EC50): > 50.7 µM; EC50 ([1]; 10% FBS 16Hr, read-out: LDH: Cytotoxicity assay EC50): > 50.7 µM
CC(=O)N[C@H](CC(C)C)C(=O)N[C@H](C(=O)N[C@@H](Cc1ccccc1)C(=O)N[C@]1(C)CCCCCCC=CCCC[C@@](C)(C(=O)N[C@@H](CO)C(=O)N[C@@H](C)C(=O)N[C@H](C)C(N)=O)NC(=O)[C@H](CC2CCC2)NC(=O)[C@H](CC(C)C)NC(=O)[C@H](CCC(N)=O)NC(=O)[C@H](Cc2c[nH]c3ccccc23)NC(=O)[C@H](Cc2ccc(O)cc2)NC(=O)[C@H](CCC(=O)O)NC1=O)[C@@H](C)O [MP-7202]	–	–	EC50 ([1]; LDH: Cytotoxicity assay: EC50): > 50.6 µM
